Test system: two-spotted spider mites
Assay: Test 2: spraying onto two-spotted spider mites on kidney bean seedlings, count of mites (pest reproduction inhibition effect)
Type: in vivo, Tetranychus urticae
Settings: ten female adults inoculated on kidney bean seedlings, (A1) as 1% solution, average of pots
Experimental: Ten female adult two-spotted spider mites were inoculated onto ‘Naga-uzura’ kidney bean seedlings (14 days after germination) grown in plastic pots, and an ethanol solution of the component (A1) was further diluted 10-fold with deionized water, and the resulting 1% solution was sprayed onto the spider mites. Two additional pots with similarly grown kidney bean seedlings were prepared. On the 2nd, 4th, 9th, 13th, and 17th days after spraying, the total number of two-spotted spider mites on the adaxial surface, abaxial surface, and true leaves of the kidney beans in each pot was counted, and the average value was calculated. The test was conducted in the same manner for the component (A3)′.

CCO [(A3)′, ethanol]
Number of two-spotted spider mites (Average) Day 2 (Day 2 after spraying): 9 | Number of two-spotted spider mites (Average) Day 4 (Day 4 after spraying): 8 | Number of two-spotted spider mites (Average) Day 9 (Day 9 after spraying): 287 | Number of two-spotted spider mites (Average) Day 13 (Day 13 after spraying): 564 | Number of two-spotted spider mites (Average) Day 17 (Day 17 after spraying): 924
